Each block holds one compound with its values, some of them ahead of it.
Legend:
Format in all cases: physicochemical
[1] = Storage stability of formulations having 20% DBNPA, 6% BNPD and 1.25% CMI/MI (3:1): oven at 40° C., loss of biocides after 60 days; conditions: 6% BNPD
Description: These formulations were prepared from salt-free CMI/MI biocide, except as otherwise indicated. They were placed in an oven at 40° C. and analyzed for loss of the biocides after 60 days.

[2] = Storage stability of formulations having 20% DBNPA and 6% BNPD: oven at 45° C., loss after 28 days
Description: These formulations were prepared and placed in an oven at 45° C. and analyzed for loss of the biocides after 28 days.

[3] = Storage stability of formulations having 20% DBNPA and 0.25% CMI/MI (3:1): oven at 45° C., loss after 28 days
Description: These formulations were prepared, using salt-free CMI/MI and placed in an oven at 45° C. and analyzed for loss of the biocides after 28 days.

[4] = Storage stability of formulations having 10-20% DBNPA, without BNPD or CMI/MI: oven at 45° C., loss after 28 days
Description: These were prepared and placed in an oven at 45° C. and analyzed for loss of the biocides after 28 days. […]=diethylene glycol monomethyl ether.

[5] = glycerin 0%, water 10%, TEG-mono-butyl ether 59.5%
[6] = glycerin 0%, water 20%, TEG 49.5%
[7] = glycerin 0%, water 20%, TEG-mono-butyl ether 49.5%
[8] = glycerin 0%, water 30%, TEG 39.5%
[9] = glycerin 0%, water 30%, TEG-mono-butyl ether 39.5%
[10] = glycerin 10%, water 10%, TEG 49.5%
[11] = glycerin 10%, water 20%, TEG-mono-butyl ether 39.5%
[12] = glycerin 10%, water 30%, TEG-mono-butyl ether 29.5%
[13] = glycerin 20%, water 10%, TEG 39.5%
[14] = glycerin 20%, water 20%, TEG 29.5%
[15] = glycerin 0%, water 20%, DPG 54, 20% DBNPA
[16] = glycerin 0%, water 20%, TetEG 54, 20% DBNPA
[17] = glycerin 10%, water 5%, DPG 60, 20% DBNPA
[18] = glycerin 10%, water 5%, TetEG 60, 20% DBNPA
[19] = glycerin 10%, water 10%, DPG 54, 20% DBNPA
[20] = glycerin 10%, water 10%, TetEG 54, 20% DBNPA
[21] = glycerin 20%, water 10%, DPG 44, 20% DBNPA
[22] = glycerin 20%, water 10%, TEG 44, 20% DBNPA
[23] = glycerin 20%, water 10%, TetEG 44, 20% DBNPA
[24] = glycerin 30%, water 5%, DPG 39, 20% DBNPA
[25] = glycerin 30%, water 5%, TetEG 39, 20% DBNPA
[26] = glycerin 30%, water 10%, DPG 34, 20% DBNPA
[27] = glycerin 30%, water 10%, TetEG 34, 20% DBNPA
[28] = glycerin 30%, water […]%, DPG 29, 20% DBNPA, result believed to be erroneous
[29] = glycerin 30%, water […]%, TetEG 29, 20% DBNPA

BNPD loss, % [2, 15]: 1.5%
BNPD loss, % ([2]; glycerin 0%, water 20%, TEG 54, 20% DBNPA): 7%
BNPD loss, % [2, 16]: 0%
BNPD loss, % [2, 17]: 1%
BNPD loss, % [2, 18]: 6%
BNPD loss, % [2, 19]: 0.5%
BNPD loss, % [2, 20]: 8.5%
BNPD loss, % [2, 21]: 1.5%
BNPD loss, % [2, 22]: 4%
BNPD loss, % [2, 23]: 3%
BNPD loss, % [2, 24]: 1.5%
BNPD loss, % [2, 25]: 1.5%
BNPD loss, % [2, 26]: 1%
BNPD loss, % [2, 27]: 2%
BNPD loss, % [2, 28]: 12.5^1%
BNPD loss, % [2, 29]: 3.5%
Structure (SMILES): O=[N+]([O-])C(Br)(CO)CO [BNPD, 2-bromo-2-nitro-1,3-propanediol]
BNPD loss, % ([1]; glycerin 0%, water 10%, TEG 59.5%): 3%
BNPD loss, % [1, 5]: 0%
BNPD loss, % [1, 6]: 1%
BNPD loss, % [1, 7]: 0%
BNPD loss, % [1, 8]: 3%
BNPD loss, % [1, 9]: 3%
BNPD loss, % [1, 10]: 3%
BNPD loss, % ([1]; glycerin 10%, water 10%, TEG-mono-butyl ether 49.5%): 3%
BNPD loss, % ([1]; glycerin 10%, water 20%, TEG 39.5%): 3%
BNPD loss, % [1, 11]: 3%
BNPD loss, % [1, 12]: 4%
BNPD loss, % [1, 13]: 3%
BNPD loss, % ([1]; glycerin 20%, water 10%, TEG-mono-butyl ether 39.5%): 3%
BNPD loss, % [1, 14]: 4%

DBNPA loss, % ([3]; glycerin 0%, water 20%, DPG 59, 20% DBNPA, 0.25% CMI/MI (3:1)): 10%
DBNPA loss, % ([3]; glycerin 0%, water 20%, TetEG 59, 20% DBNPA, 0.25% CMI/MI (3:1)): 4%
DBNPA loss, % ([3]; glycerin 10%, water 5%, DPG 64, 20% DBNPA, 0.25% CMI/MI (3:1), result believed to be erroneous): 27^1%
DBNPA loss, % ([3]; glycerin 10%, water 5%, TetEG 64, 20% DBNPA, 0.25% CMI/MI (3:1)): 2.5%
DBNPA loss, % ([3]; glycerin 10%, water 10%, DPG 59, 20% DBNPA, 0.25% CMI/MI (3:1)): 7%
DBNPA loss, % ([3]; glycerin 10%, water 10%, TetEG 59, 20% DBNPA, 0.25% CMI/MI (3:1)): 3.5%
DBNPA loss, % ([3]; glycerin 20%, water 10%, DPG 49, 20% DBNPA, 0.25% CMI/MI (3:1)): 3.5%
DBNPA loss, % ([3]; glycerin 20%, water 10%, TEG 49, 20% DBNPA, sample had 1% CMI/MI): 6%
DBNPA loss, % ([3]; glycerin 20%, water 10%, TetEG 49, 20% DBNPA, 0.25% CMI/MI (3:1)): 3.5%
DBNPA loss, % ([3]; glycerin 30%, water 5%, DPG 44, 20% DBNPA, 0.25% CMI/MI (3:1)): 6%
DBNPA loss, % ([3]; glycerin 30%, water 5%, TetEG 44, 20% DBNPA, 0.25% CMI/MI (3:1)): 6%
DBNPA loss, % ([3]; glycerin 30%, water 10%, DPG 39, 20% DBNPA, 0.25% CMI/MI (3:1)): 4%
DBNPA loss, % ([3]; glycerin 30%, water 10%, TetEG 39, 20% DBNPA, 0.25% CMI/MI (3:1)): 2.5%
DBNPA loss, % ([3]; glycerin 30%, water 20%, DPG 29, 20% DBNPA, 0.25% CMI/MI (3:1)): 4%
DBNPA loss, % ([3]; glycerin 30%, water 20%, TetEG 29, 20% DBNPA, 0.25% CMI/MI (3:1)): 3.5%
DBNPA loss, % ([3]; glycerin 30%, water […]%, DPG 34, 20% DBNPA, 0.25% CMI/MI (3:1)): 3.5%
DBNPA loss, % ([3]; glycerin 30%, water […]%, TetEG 34, 20% DBNPA, 0.25% CMI/MI (3:1)): 3%
DBNPA loss, % [2, 15]: 3.5%
DBNPA loss, % [2, 16]: 2%
DBNPA loss, % [2, 17]: 7%
DBNPA loss, % [2, 18]: 5%
DBNPA loss, % [2, 19]: 6%
DBNPA loss, % [2, 20]: 7%
DBNPA loss, % [2, 21]: 3%
DBNPA loss, % [2, 22]: 7%
DBNPA loss, % [2, 23]: 7%
DBNPA loss, % [2, 24]: 2%
DBNPA loss, % [2, 25]: 2.5%
DBNPA loss, % [2, 26]: 3%
DBNPA loss, % [2, 27]: 3%
DBNPA loss, % [2, 28]: 14^1%
DBNPA loss, % [2, 29]: 4.5%
DBNPA loss, % ([4]; glycerin 30%, water 5%, TEG 45, 20% DBNPA): 3^ %
DBNPA loss, % ([4]; glycerin 45%, water 5%, TEG 30, 20% DBNPA): 3^ %
DBNPA loss, % ([4]; glycerin 65%, water […]%, DEGMME 10, only 10% DBNPA): 95^1%
DBNPA loss, % ([4]; glycerin 65%, water […]%, TEG 10, only 10% DBNPA): 3^1%
DBNPA loss, % ([4]; glycerin 65%, water […]%, TetEG 10, only 10% DBNPA): 95^1%
Structure (SMILES): N#CC(Br)(Br)C(N)=O [DBNPA, 2,2-dibromo-3-nitrilopropionamide]
DBNPA loss, % [1, 5]: 40%
DBNPA loss, % [1, 6]: 10%
DBNPA loss, % [1, 7]: 18%
DBNPA loss, % [1, 8]: 16%
DBNPA loss, % [1, 9]: 18%
DBNPA loss, % [1, 10]: 6%
DBNPA loss, % [1, 11]: 14%
DBNPA loss, % [1, 12]: 18%
DBNPA loss, % [1, 13]: 5%
DBNPA loss, % [1, 14]: 14%

Source: patent publication US20120165376A1, “STABILIZED MICROBICIDAL COMPOSITION” (priority 2010, published 2012)
